Structures can show the parent of a compound that is named as a salt. Where two headings read alike, the source gives them in different places.

Series [1] in a line: in vitro. On the procedure: Ten commercial reference drugs, phosphate buffer saline solution at pH 7.4 (PBS), DMSO and dodecane were purchased from Sigma, Acros organics, Aldrich and Fluka. […] Filter PDVF membrane units (diameter 30 mm, pore size 0.45 μm) from Symta were used to filtered the samples. A 96-well plate UV reader (Thermoscientific, Multiskan spectrum) was used for the UV measurements. […] These solutions were filtered. The acceptor 96-well microplate was filled with 180 μL of PBS:DMSO (95:5). The donor 96-well plate was coated with 4 μL of porcine brain lipid in dodecane (20 mg mL^−1) and after 5 minutes, 180 μL of each compound solution was added. 1-2 mg of every compound to be determined their ability to pass the BBB were dissolved in 250 μL of DMSO and 4750 μL of PBS pH 7.4 buffer, filtered and then added to the donor 96-well plate. Then the donor plate was carefully put on the acceptor plate to form a “sandwich”, which was left undisturbed for 4 h at 25° C.
During this time the compounds diffused from the donor plate through the brain lipid membrane into the acceptor plate. After incubation, the donor plate was removed. The concentration of compounds and commercial drugs in the acceptor and the donor wells was determined by UV plate reader. Every sample was analyzed from three to five wavelengths, in 3 wells and in at least three independent runs. […] 11 quality control compounds (previously mentioned) of known BBB permeability were included in each experiment to validate the analysis set.

In series [2] the target is T1, PDE7A1 (Homo sapiens, UniProt Q13946).
T1 construct: purchased Calbiochem 524751
T1 sequence (Q13946 whole entry): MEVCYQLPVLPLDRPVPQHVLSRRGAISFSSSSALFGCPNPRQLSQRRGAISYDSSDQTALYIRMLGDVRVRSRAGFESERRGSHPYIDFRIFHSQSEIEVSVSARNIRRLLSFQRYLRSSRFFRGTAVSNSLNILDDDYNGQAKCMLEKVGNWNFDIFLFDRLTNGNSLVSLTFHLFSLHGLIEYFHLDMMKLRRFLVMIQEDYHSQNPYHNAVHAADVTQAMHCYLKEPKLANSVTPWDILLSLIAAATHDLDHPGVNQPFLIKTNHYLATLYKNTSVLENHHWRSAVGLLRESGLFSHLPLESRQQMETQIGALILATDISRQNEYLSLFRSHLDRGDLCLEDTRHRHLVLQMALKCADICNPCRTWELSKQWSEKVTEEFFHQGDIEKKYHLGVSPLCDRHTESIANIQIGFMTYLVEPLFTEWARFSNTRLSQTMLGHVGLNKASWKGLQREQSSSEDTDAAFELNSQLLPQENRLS
Description: Determination of PDE7 inhibition (SPA, [3H]cAMP). It is filed as biochemical. The settings on record: for IC50: read-out: IC50 (PDE7A). On the procedure:
PDE-7 inhibition was performed with a commercial kit for the determination of phosphodiesterase activity (GE Healthcare Life Sciences, cat#TRKQ7090).
The compounds to be evaluated were incubated (in concentrations between 0.1 nM and 100 μM) in presence of 0.02 U/well of PDE7A1 (Calbiochem cat#524751) and 0.05 μCi of [^3H] cAMP, for 20 min at 30° C. in the assay buffer of kit (total volume=100 μl).
After this time, 50 μl of a suspension of 20 mg/ml microspheres of SPA of Ytrium silicate were added and was maintained under stirring at room temperature for 60 min. Finally, the plate was settled for 20 min and radioactivity was detected in a Microbeta Trilux reader.
In every assay there were included two points without PDE7A1 (blank) and two points with PDE7A1 without inhibitors (control).
Data Analysis: All the compounds were evaluated firstly at the concentration of 10 μM and the percentage of PDE7A1 inhibition was calculated, according to the following formula (cpm=counts per minute): % Inhibition=((cpm control−cpm sample)×100)/(cpm control−cpm blank assay).
For those compounds with % inhibition values above 45% it was calculated its inhibitory potency (IC50) building the dose-response curve.
The data were adjusted with the software Prism v 2.1 (GraphPad Software) using the non lineal fitting.

Where [3] appears, read: 1,2,4-thiadiazoles-5-imino substituted as hydrobromides.

For the compound `CC(C)NCC(O)COc1ccc(CC(N)=O)cc1` (stereo not shown) [Atenolol, reference compound], the “Pe (10^−6 cm s^−1)” value in series [1] (pig, PAMPA, 4 h, pH 7.4) is recorded as 0.8 ± 1.1 10^−6 cm s^−1.

As to `CCn1cc(C(=O)O)c(=O)c2cc(F)c(N3CCNCC3)nc21` [Enoxacin, reference compound], in series [1] (pig, PAMPA, 4 h, pH 7.4), the “Pe (10^−6 cm s^−1)” value is recorded as 0.9 ± 0.5 10^−6 cm s^−1.

For `CN1C(C(=O)Nc2ccccn2)=C(O)c2ccccc2S1(=O)=O` [Piroxicam, reference compound], the “Pe (10^−6 cm s^−1)” value in series [1] (PBS:DMSO (95:5) as solvent, 4 h at 25° C., mean ± SD of at least 3 independent experiments) was 2.2 ± 0.9 10^−6 cm s^−1.

`CN(C)CCCN1c2ccccc2Sc2ccccc21` [Promazine, reference compound]: the Papp at 4 h in series [1] (PAMPA, pH 7.4) stood at 9.7 ± 1.5 ×10⁻⁶ cm/s.

As for `Br.Br.c1ccc(-c2nc(=NCc3cccnc3)sn2-c2ccccc2)cc1` [VP-1.14, 2,3-Diphenyl-5-(3-pyridinylmethylimino)-2,5-dihydro-1,2,4-thiadiazole dihydrobromide], the IC50 in series [2] (setting [3]) amounted to 380 nM. In addition, the “Prediction (predictive penetration in the CNS)” value (“Prediction” for short) in series [1] (PAMPA) is given as “CNS+”. For the same compound, the Papp at 4 h in series [1] (PAMPA, pH 7.4) amounted to 10.7 ± 0.3 ×10⁻⁶ cm/s.

`Br.OCCN=c1nc(-c2ccccc2)n(-c2ccccc2)s1` [VP-1.15, 5-(2-Hydroxyethylimino)-2,3-diphenyl-2,5-dihydro-1,2,4-thiadiazole hydrobromide]: the IC50 in series [2] (setting [3]) is 1110 nM. Besides, the “Prediction” value in series [1] (PAMPA) is reported as “CNS+”. This compound also yielded a Papp at 4 h in series [1] (PAMPA, pH 7.4) of 15.4 ± 2 ×10⁻⁶ cm/s.

Turning to `Br.CCOC(=O)CN=c1nc(-c2ccccc2)n(-c2ccccc2)s1` [VP-1.16, 5-Ethoxycarbonylmethylimino-2,3-diphenyl-2,5-dihydro-1,2,4-thiadiazole hydrobromide], the IC50 in series [2] (setting [3]) is 1130 nM. For the same compound, the “Prediction” value in series [1] (PAMPA) is on record as “CNS+”. Moreover, the Papp at 4 h in series [1] (PAMPA, pH 7.4) amounted to 6.2 ± 0.4 ×10⁻⁶ cm/s.

In the case of `Br.COc1ccc(-c2nc(=NCCO)sn2-c2ccccc2)cc1` [VP-1.40, 5-(2-Hydroxyethylimino)-3-(4-methoxyphenyl)-2-phenyl-2,5-dihydro-1,2,4-thiadiazole hydrobromide], the IC50 in series [2] (setting [3]) was determined as 1500 nM. The “Prediction” value in series [1] (PAMPA) is listed as “CNS+”. In addition, the Papp at 4 h in series [1] (PAMPA, pH 7.4) was 13.7 ± 0.8 ×10⁻⁶ cm/s.

For `Br.Br.COc1ccc(-c2nc(=NCc3cccnc3)sn2-c2ccccc2)cc1` [VP-1.43, 3-(4-Methoxyphenyl)-2-phenyl-5-(3-pyridylmethylimino)-2,5-dihydro-1,2,4-thiadiazole dihydrobromide], the IC50 in series [2] (setting [3]) stood at 860 nM. The “Prediction” value in series [1] (PAMPA) is reported as “CNS+”. For the same compound, in series [1] (PAMPA, pH 7.4), the Papp at 4 h came out at 4.4 ± 0.6 ×10⁻⁶ cm/s.

For the compound `Br.Br.COc1ccc(-n2sc(=NCc3cccnc3)nc2-c2ccccc2)cc1` [VP-1.60, 2-(4-Methoxyphenyl)-3-phenyl-5-(3-pyridinylmethylimino)-2,5-dihydro-1,2,4-thiadiazole dihydrobromide], the IC50 in series [2] (setting [3]) worked out at 850 nM. For the same compound, the “Prediction” value in series [1] (PAMPA) is on record as “CNS+”. For the same compound, the Papp at 4 h in series [1] (PAMPA, pH 7.4) worked out at 6.2 ± 0.4 ×10⁻⁶ cm/s.

`Br.COc1ccc(-n2sc(=NCCO)nc2-c2ccccc2)cc1` [VP-1.61, 5-(2-Hydroxyethylimino)-2-(4-methoxyphenyl)-3-phenyl-2,5-dihydro-1,2,4-thiadiazole hydrobromide]: the IC50 in series [2] (setting [3]) was 1180 nM. Also, the “Prediction” value in series [1] (PAMPA) is “CNS+”. In series [1] (PAMPA, pH 7.4), this compound registered a Papp at 4 h of 13.7 ± 1 ×10⁻⁶ cm/s.

For the compound `Br.CCOC(=O)CN=c1nc(-c2ccccc2)n(-c2ccc(OC)cc2)s1` [VP-1.62, 5-Ethoxycarbonylmethylimino-2-(4-methoxyphenyl)-3-phenyl-2,5-dihydro-1,2,4-thiadiazole hydrobromide], in series [2] (setting [3]), the IC50 turned out to be 780 nM. In series [1] (PAMPA), the “Prediction” value is reported as “CNS+/CNS−”. For the same compound, the Papp at 4 h in series [1] (PAMPA, pH 7.4) turned out to be 4 ± 0.8 ×10⁻⁶ cm/s.

`Br.CCOC(=O)CN=c1nc(-c2ccc(OC)cc2)n(-c2ccccc2)s1` [VP-1.65, 5-Ethoxycarbonylmethylimino-3-(4-methoxyphenyl)-2-phenyl-2,5-dihydro-1,2,4-thiadiazole hydrobromide]: the IC50 in series [2] (setting [3]) stood at 890 nM. The “Prediction” value in series [1] (PAMPA) is “CNS+/CNS−”. For the same compound, the Papp at 4 h in series [1] (PAMPA, pH 7.4) amounted to 3.8 ± 0.2 ×10⁻⁶ cm/s.

In the case of `OCCN=c1nc(-c2ccccc2)n(-c2ccccc2)s1` [VP-2.3, 5-(2-Hydroxyethylimino)-2,3-diphenyl-2,5-dihidro-1,2,4-thiadiazole hydrochloride], in series [2] (1,2,4-thiadiazoles-5-imino substituted as hydrochlorides), the IC50 was found to be 1970 nM. For the same compound, the “Prediction” value in series [1] (PAMPA) is reported as “CNS+”. The compound further yielded a Papp at 4 h in series [1] (PAMPA, pH 7.4) of 15 ± 2 ×10⁻⁶ cm/s.

With `Br.OCCN=c1nc(-c2cccc3ccccc23)n(-c2ccccc2)s1` [VP-2.33, 5-(2-Hydroxyethylimino)-3-(1-naphthyl)-2-phenyl-2,5-dihydro-1,2,4-thiadiazole hydrobromide], the IC50 in series [2] (setting [3]) came to 1240 nM. In addition, the Papp at 4 h in series [1] (PAMPA, pH 7.4) was 10.2 ± 0.6 ×10⁻⁶ cm/s. Besides, the “Prediction” value in series [1] (PAMPA-BBB) is recorded as “CNS+”.

Consider `Br.Br.Cc1nc(=NCc2cccnc2)sn1-c1ccccc1` [VP-2.63, 3-Methyl-2-phenyl-5-(3-pyridylmethylimino)-2,5-dihydro-1,2,4-thiadiazole dihydrobromide], for which the inhibition at 10 µM in series [2] (read-out: % inhibition of PDE7A at 10 μM, hydrobromides, at 10 μM) was 54%. Moreover, the “Prediction” value in series [1] (PAMPA) is “CNS+”. In series [1] (PAMPA, pH 7.4), the Papp at 4 h turned out to be 5.3 ± 0.9 ×10⁻⁶ cm/s.

The values above are taken from patent publication US9604947B2, “Substituted 5-imino-1,2,4-thiadiazoles that can be used to treat neurodegenerative diseases” (CONSEJO SUPERIOR DE INVESTIGACIONES CIENTIFICAS (CSIC), priority 2009, dated 2017).
